One data set has as its system β-hematin. In words: β-Hematin inhibition assay (BHIA), cell-free NP-40 mediated. The conditions noted are these: mean of n = 3. It is filed as biochemical. Here is the method:
page 20: fold to attain six assay concentrations of 100-0.001 μg/mL. […] was used as the reference compound in this assay. The highest concentration of DMSO, which was used as the negative control, had no measurable effect on cell viability. After 44 hours of exposure of the cells to the test compounds, a solution of MTT was added. This was followed by an additional 4 hours of incubation at 37 °C. The assay plates were centrifuged, medium removed, and DMSO was added to the crystals. The amount of formazan was ascertained by measuring the absorbance at 540 nm. GraphPad Prism software was then used to generate IC50 values through a non-linear dose-response curve analysis. β-Hematin Inhibition Assay 20 mM stock solutions of controls and test compounds were made in DMSO. A solution […] was added to every well in columns 1-11 of a 96-well plate. 140 μL of water and 40 μL of 305.5 μM NP-40 were added to column 12 to mediate the formation of beta-hematin. 20 μL of test compounds (20 mM) were added to column 12 and 100 μL of this solution serially diluted to column 2, leaving column 1 blank (0 μM of test compound). 178.8 μL aliquot of hematin stock was suspended in 20 ml of a 1 M acetate buffer at pH 4.9. 100 μL of this hematin […] pH 7.4 and 50% pyridine) and 60 μL of acetone were added to all wells. The absorbances of plate wells were recorded at 405 nm on a SpectraMax plate reader. Sigmoidal dose-response curves with variable slopes were fitted to the absorbance data using GraphPad Prism to obtain the IC50 values for each compound. In vitro Microsomal Stability Assay The in vitro microsomal stability assay was performed in duplicate in a 96-well micro titre […] individually in human (pool of 50, mixed gender), rat (pool of 711, male Sprague Dawley) and mouse (pool of 1634, male CD1) liver microsomes (final protein concentration of 0.4 mg/mL; Xenotech, Kansas, USA), suspended in 0.1M phosphate buffer (pH 7.4). Incubations were S20

Data set [1] deals with multidrug-resistant (K1) strain of P. falciparum. Description: In vitro asexual blood-stage antiplasmodium pLDH assay, K1 strain. In kind it is cell-based. As to conditions: Plasmodium falciparum, 72 h, n ≥ 3, read-out: In vitro antiplasmodium activity IC50 PfK1 strain. Here is the method: (§1) Compounds were screened against multi-drug-resistant (K1) and sensitive (NF54) strains of P. falciparum in vitro using a parasite lactate dehydrogenase assay (pLDH) (the method is described fully in the Supporting Information). […]
(§2) In vitro Asexual Blood Stage Antiplasmodium Assay
(§3) Parasites were cultured as per the method of Trager and Jensen,1 with modifications. IC50 values were determined using parasite lactate dehydrogenase as a marker for survival (Makler […]
(§4) et al, 1993). The test samples were prepared to a 10 mmol/L stock solution in 100% DMSO.
(§5) Samples were tested as a suspension if not completely dissolved. Further dilutions to the desired starting concentration were freshly prepared in growth media on each occasion of the experiment. The standard antimalarial drugs chloroquine (CQ) and artesunate (Arts) were used as the reference drug in all experiments. A full dose-response was performed for all compounds in a 96-well plate to determine the concentration inhibiting 50% of parasite growth (IC50– value). Test samples were tested at a starting concentration of 6mmol/L, which was then serially diluted 2-fold in growth medium to generate the tested concentration range. The same dilution technique was used for all samples. CQ and Arts were tested from a starting concentration of 1µg/mL. The highest concentration of solvent to which the parasites were exposed was <0.1% and has no measurable effect on the parasite viability (data not shown).
(§6) The assay plate was incubated at 37 °C for 72h in a sealed gas chamber under 3% O2 and 4% CO2 with the balance being N2. After 72h, the wells in the assay plate were gently resuspended, and 15µL from each well was transferred to a duplicate plate containing 100µL of Malstat reagent and 25µL of nitroblue tetrazolium solution in each well. Plates were left to develop for 20 minutes in the dark and then absorbance of each well was quantified using a spectrophotometer at 620nm wavelength.
(§7) The remaining population of parasites at each concentration of the test compound was determined by comparing the absorbance of each well to the absorbance of a well containing […]
(§8) the drug-free control. […]
(§9) The initial 100 µg/mL solution is serially diluted 10-

The next data set in a line: Solubility. In kind it is physicochemical. The conditions noted are these: pH 6.5, aqueous buffer. From the text: Table 1 In Vitro Antiplasmodium Activity, Cytotoxicity, BHIA, and Solubility | column: Solubility pH 6.5, μM
Data set [2] in a line: In vitro cytotoxicity MTT assay. As to conditions: Chinese hamster, Chinese hamster ovarian (CHO) cells; MTT assay. In kind it is cell-based, Chinese hamster. The protocol: (§10) In vitro cytotoxicity was performed on the Chinese Hamster Ovarian cell line by measuring cellular growth and survival calorimetrically through the MTT assay.[29],[30] The formation of tetrazolium salt was used as a measure of chemosensitivity and growth. (Details of this assay is described in the Supporting Information.) page 19: et al, 1993). The test samples were prepared to a 10 mmol/L stock solution in 100% DMSO. Samples were tested as a suspension if not completely dissolved. Further dilutions to the desired starting concentration were freshly prepared in growth media on each occasion of the experiment. The standard antimalarial drugs chloroquine (CQ) and artesunate (Arts) were used as the reference drug in all experiments. A full dose-response was performed for all compounds […] value). Test samples were tested at a starting concentration of 6mmol/L, which was then serially diluted 2-fold in growth medium to generate the tested concentration range. The same dilution technique was used for all samples. CQ and Arts were tested from a starting concentration of 1μg/mL. The highest concentration of solvent to which the parasites were exposed was <0.1% and has no measurable effect on the parasite viability (data not shown). The assay plate was incubated at 37 °C for 72h in a sealed gas chamber under 3% O2 and 4% CO2 with the balance being N2. After 72h, the wells in the assay plate were gently resuspended, and 15μL from each well was transferred to a duplicate plate containing 100μL of Malstat reagent and 25μL of nitroblue tetrazolium solution in each well. Plates were left to develop for 20 minutes in the dark and then absorbance of each well was quantified using a spectrophotometer at 620nm wavelength. The remaining population of parasites at each concentration of the test compound was determined by comparing the absorbance of each well to the absorbance of a well containing the drug-free control. Survival was plotted against concentration and the IC50 values were obtained using a non-linear dose-response curve fitting analysis via the Dotmatics software platform.2 In vitro Cytotoxicity Assay In vitro cytotoxicity was performed on the Chinese Hamster Ovarian cell line by measuring […] diphenyltetrazolium bromide (MTT) assay.3,4 The formation of tetrazolium salt was used as a measure of chemosensitivity and growth. 2 mg/mL stock solutions of the test compounds were prepared in DMSO and stored at -20 °C until required. The stock solution was subsequently diluted with the assay medium to make up an initial concentration of 100 μg/mL. The initial 100 μg/mL solution is serially diluted 10- S19 page 20: fold to attain six assay concentrations of 100-0.001 μg/mL. […] was used as the reference compound in this assay. The highest concentration of DMSO, which was used as the negative control, had no measurable effect on cell viability. After 44 hours of exposure of the cells to the test compounds, a solution of MTT was added. This was followed by an additional 4 hours of incubation at 37 °C. The assay plates were centrifuged, medium removed, and DMSO was added to the crystals. The amount of formazan was ascertained by measuring the absorbance at 540 nm. GraphPad Prism software was then used to generate IC50 values through a non-linear dose-response curve analysis. β-Hematin Inhibition Assay 20 mM stock solutions of controls and test compounds were made in DMSO. A solution […] was added to every well in columns 1-11 of a 96-well plate. 140 μL of water and 40 μL of 305.5 μM NP-40 were added to column 12 to mediate the formation of beta-hematin. 20 μL of test compounds (20 mM) were added to column 12 and 100 μL of this solution serially diluted to column 2, leaving column 1 blank (0 μM of test compound). 178.8 μL aliquot of hematin stock was suspended in 20 ml of a 1 M acetate buffer at pH 4.9. 100 μL of this hematin suspension was then added into each well, and the plates were incubated for ±5 hrs at 37°C. […]

For data set [3], the system named is Chinese hamster ovarian (CHO) cell line. In words: In vitro cytotoxicity MTT assay. In kind it is cell-based. The conditions noted are these: CHO vs PfNF54. The protocol:
as §10
A general note: Tetrazolium dyes change colour on reduction, which living cells bring about.

The subject of data set [4] is chloroquine-sensitive (NF54) strain of P. falciparum. Description: In vitro asexual blood-stage antiplasmodium pLDH assay, NF54 strain. It is filed as cell-based. As to conditions: Plasmodium falciparum. Here is the method:
as §1, §2, §3, §4, §5, §6, §7, §8, §9

The mark [5] stands for this setting: NF54, pLDH, 72 h, n ≥ 3, read-out: In vitro antiplasmodium activity IC50 PfNF54 strain.

≈ marks a conversion by molar mass, not a printed value. Like-named read-outs stand apart in the source and are kept apart here.

Experimental findings from PMC10111423, “Antimalarial Imidazopyridines Incorporating an Intramolecular Hydrogen Bonding Motif: Medicinal Chemistry and Mechanistic Studies” (ACS Infectious Diseases, 2023) are described below.

In general, IC50 refers to the midpoint of a concentration-inhibition curve. In general, solubility refers to the concentration that dissolves in the medium under given conditions.

As to `CCN(CCNc1cc2[nH]c(C3CCOC3)nc2cn1)Cc1ccc(Cl)cc1O` (centres unmarked) [Compound 2, 5-Chloro-2-((ethyl(2-((2-(tetrahydrofuran-3-yl)-1H-imidazo[4,5-c]pyridin-6-yl)amino)ethyl)amino)methyl)phenol], the IC50 worked out at 225 µM with β-hematin, 1.61 µM in data set [1] and 1.67 µM in data set [4] (setting [5]). The solubility in “Solubility” turned out to be 125 µM (≈ 52 µg/mL). This compound gave a half-inhibitory concentration (IC50) at 44 h in data set [2] greater than 50 µM. In addition, the “SI (selectivity index) = IC50 CHO/IC50 PfNF54” value in data set [3] was greater than 29.94.

Regarding `CCN(CCNc1cc2[nH]c(C3CCOCC3)nc2cn1)Cc1ccc(Cl)cc1O` [Compound 3, 5-Chloro-2-((ethyl(2-((2-(tetrahydro-2H-pyran-4-yl)-1H-imidazo[4,5-c]pyridin-6-yl)amino)ethyl)amino)methyl)phenol], the results for the IC50 (in the data set with β-hematin; in data set [1]; in data set [4] (setting [5])) were 722 µM, 4.19 µM and 2.37 µM, respectively. In addition, the concentration in solution in the data set “Solubility” (solubility) came to 120 µM (≈ 51.6 µg/mL). This compound also returned an IC50 at 44 h in data set [2] greater than 50 µM. In addition, in data set [3], the “SI (selectivity index) = IC50 CHO/IC50 PfNF54” value is listed as greater than 21.09.

As for `CCN(CCNc1cc2[nH]c(C)nc2cn1)Cc1ccc(Cl)cc1O` [Compound 4, 5-Chloro-2-((ethyl(2-((2-methyl-1H-imidazo[4,5-c]pyridin-6-yl)amino)ethyl)amino)methyl)phenol], the IC50 amounted to 257 µM in the data set with β-hematin, 4.11 µM in data set [1] and 2.53 µM in data set [4] (setting [5]). In the data set “Solubility”, this compound gave a solubility of 135 µM (≈ 48.6 µg/mL). This compound had an IC50 at 44 h in data set [2] greater than 50 µM. In addition, the “SI (selectivity index) = IC50 CHO/IC50 PfNF54” value in data set [3] was greater than 19.76.

On to `CCN(CCNc1cc2[nH]c(C3(C(F)(F)F)CC3)nc2cn1)Cc1ccc(Cl)cc1O` [Compound 7, 5-Chloro-2-((ethyl(2-((2-(1-(trifluoromethyl)cyclopropyl)-1H-imidazo[4,5-c]pyridin-6-yl)amino)ethyl)amino)methyl)phenol], for which the IC50 in the data set on β-hematin was 275 µM; in data set [1], 6 µM; in data set [4] (setting [5]), 1.67 µM. Also, in the data set “Solubility”, the concentration in solution (solubility) was 175 µM (≈ 79.4 µg/mL). Further, in data set [2], the IC50 at 44 h is greater than 50 µM. Moreover, the “SI (selectivity index) = IC50 CHO/IC50 PfNF54” value in data set [3] is given as greater than 29.94.

Turning to `CCN(CCNc1cc2[nH]c(CC3CC3)nc2cn1)Cc1ccc(Cl)cc1O` [Compound 8, 5-Chloro-2-(((2-((2-(cyclopropylmethyl)-1H-imidazo[4,5-c]pyridin-6-yl)amino)ethyl)(ethyl)amino)methyl)phenol], the values for the IC50 (in the data set with β-hematin; in data set [1]; in data set [4] (setting [5])) were 444 µM, 6 µM and 0.56 µM, respectively. The amount in solution in the data set “Solubility” (solubility) came to 185 µM (≈ 74 µg/mL). The IC50 at 44 h in data set [2] was greater than 50 µM. In addition, the “SI (selectivity index) = IC50 CHO/IC50 PfNF54” value in data set [3] is on record as greater than 89.29.

Take `CCN(CCNc1cc2[nH]c(C3CCC3)nc2cn1)Cc1ccc(Cl)cc1O` [Compound 9, 5-Chloro-2-(((2-((2-cyclobutyl-1H-imidazo[4,5-c]pyridin-6-yl)amino)ethyl)(ethyl)amino)methyl)phenol]: the IC50 with β-hematin is 128 µM; in data set [1], 6 µM; in data set [4] (setting [5]) it was 0.67 µM. The same compound showed a solubility in “Solubility” of 170 µM (≈ 68 µg/mL). The same compound registered an IC50 at 44 h in data set [2] greater than 50 µM. The “SI (selectivity index) = IC50 CHO/IC50 PfNF54” value in data set [3] is recorded as greater than 74.63.

In the case of `CCN(CCNc1cc2[nH]c(C3CCC(F)(F)CC3)nc2cn1)Cc1ccc(Cl)cc1O` [Compound 12, 5-Chloro-2-(((2-((2-(4,4-difluorocyclohexyl)-1H-imidazo[4,5-c]pyridin-6-yl)amino)ethyl)(ethyl)amino)methyl)phenol], the IC50 was 31 µM in the data set with β-hematin, 3.68 µM in data set [1] and 0.93 µM in data set [4] (setting [5]). In addition, the solubility in the data set “Solubility” is less than 5 µM. The compound also registered a concentration for half-maximal inhibition (IC50) at 44 h in data set [2] greater than 50 µM.

With `O=[N+]([O-])c1ccc(NCCN(CCNc2cc3[nH]c(-c4cccc(C(F)(F)F)c4)nc3cn2)Cc2ccc(Cl)cc2O)c2nonc12` [Compound 14-NBD, 5-Chloro-2-(((2-((7-nitrobenzo[c][1,2,5]oxadiazol-4-yl)amino)ethyl)(2-((2-(3-(trifluoromethyl)phenyl)-1H-imidazo[4,5-c]pyridin-6-yl)amino)ethyl)amino)methyl)phenol], the IC50 in data set [4] (setting [5]) turned out to be 0.049 µM.

As for `C[C@H]1[C@H](OC(=O)CCC(=O)O)O[C@@H]2O[C@@]3(C)CC[C@H]4[C@H](C)CC[C@@H]1[C@@]24OO3` [artesunate, reference compound], the IC50 in data set [4] (NF54, controls, strain not stated in footnote, read-out: IC50 of controls in pLDH antiplasmodium assay) is 0.007 µM.

`CCN(CC)CCCC(C)Nc1ccnc2cc(Cl)ccc12` (centres unmarked) [chloroquine, reference compound]: in data set [4] (NF54, read-out: IC50 of controls in pLDH antiplasmodium assay), the 50% inhibitory concentration (IC50) was determined as 0.012 µM.
